From patent publication US20250177406A1, “PHARMACEUTICAL COMPOSITION FOR TREATING TUMORS” (Eisai R&D Management Co., Ltd., priority 2022, published 2025)
Read-outs that look alike come from different tables or passages of the source.

Legend:
[1] = tested on: xenograft model with the KRAS G12C mutation-positive human non-small cell lung cancer cell line NCI-H358; test: Antitumor effect of combined administration with adagrasib in xenograft model (tumor volume); format: in vivo, nude mice; set-up: unit not given beside the values; details: adagrasib 10 mg/kg, once per day, oral
Procedure: Experimental conditions for drug efficacy test using mice with different cell lines (suspension media, cell counts for transplantation, lineages of mice, administered drugs, days of initiation of administration, test periods) were shown in Table 5. Each cell line was prepared with suspension medium to reach an intended cell count for transplantation, and the resulting suspension was subcutaneously transplanted into nude mice (6-week-old, female) at the body flank.
The long diameter and short diameter of tumors generated in each mouse were measured with a Digimatic Caliper (manufactured by Mitutoyo Corp.) twice a week from day 1 as the day of initiation of administration to the final day of the test.
The tumor volume was calculated by the following formula.
Numbers in Table 6 each indicate mean±standard error (SEM) of tumor volume. In the test carried out, six mice were used per group.

[2] = tested on: xenograft model with the KRAS G12C mutation-positive human non-small cell lung cancer cell line NCI-H358; details: sotorasib 100 mg/kg, once per day, oral
Procedure: Matrigel/HBSS (50:50) was added to a KRAS G12C mutation-positive human non-small cell lung cancer cell line, NCI-358 cells, to prepare a cell suspension of 8×10^6 cells. The cell suspension was subcutaneously transplanted into nude mice (CAnN.Cg-Foxn1 nu/CrlCrlj, from Charles River Laboratories Japan, Inc.) at the body flank. Six mice were used per group. The date of transplantation was defined as day 1. […] No drug was administered to the control group.
The date of the initiation of administration was defined as day 1. On days 4, 8, 11, and 15, the long diameter and short diameter of tumors generated in each mouse were measured with a Digimatic Caliper (manufactured by Mitutoyo Corp.).

[3] = tested on: xenograft model with the KRAS G12C mutation-positive human colorectal cancer cell line SW837; details: sotorasib 100 mg/kg, once per day, oral
[4] = tested on: xenograft model with the KRAS G12C mutation-positive human bladder cancer cell line UM-UC-3; details: UM-UC-3 xenograft, E7386 25 mg/kg, sotorasib 100 mg/kg, once per day, oral
[5] = tested on: KRAS G12D mutation-positive human bile duct cancer cell line SNU-869; test: Cell growth inhibitory activity of combined treatment, ultra-low adsorption plate, CellTiter-Glo 3D, 5 days; format: cell-based; details: 120 h, SNU-869, MRTX1133 alone
Procedure: (§1) With different KRAS mutation-positive cell lines, combined treatment of the compound represented by formula (I) and a KRAS inhibitor was evaluated on growth inhibitory activity. […] Cells were seeded in 96-well flat-bottomed ultra-low adsorption plate (manufactured by Corning Incorporated) at 5000 cells/well, and cultured at 5% CO2 and 37° C. for 1 day. […] The drug solutions were prepared by diluting their DMSO stocks with medium to specific concentrations, and added in such a manner that the volume of the culture medium reached 100 μL/well after addition of the drugs. After the culture for 5 days, 30 μL of CellTiter-Glo 3D Reagent (manufactured by Promega Corporation) was added to each well and reacted under shading for 30 minutes, and 50-μL portions were then transferred into a separate white 96-well plate (manufactured by Greiner Bio-One International GmbH), and the emission intensity of luciferase was measured with a plate reader (manufactured by PerkinElmer, Inc.). The measurement values were defined as the relative cell counts.

[6] = tested on: KRAS G12D mutation-positive human endometrial cancer cell line HEC-1-B; test: as above; format: cell-based; details: 120 h, MRTX1133 alone
Procedure: as §1

| Compound | tumor volume, mean ± SEM ([1]; Day 4, E7386 25 mg/kg) | tumor volume, mean ± SEM ([1]; Day 8, E7386 25 mg/kg) | tumor volume, mean ± SEM ([1]; Day 11, E7386 25 mg/kg) | tumor volume, mean ± SEM ([1]; Day 15, E7386 25 mg/kg) | tumor volume, mean ± SEM ([1]; Day 18, E7386 25 mg/kg) | tumor volume, mean ± SEM ([2]; Day 11, E7386 25 mg/kg) | tumor volume, mean ± SEM ([2]; Day 15, E7386 25 mg/kg) | tumor volume, mean ± SEM ([3]; Day 5, E7386 25 mg/kg) | tumor volume, mean ± SEM ([3]; Day 12, E7386 25 mg/kg) | tumor volume, mean ± SEM ([4]; Day 5) | tumor volume, mean ± SEM ([4]; Day 12) | tumor volume, mean ± SEM ([4]; Day 15) | GI50 [5] [nM] | GI50 [6] [nM] |
| --- | --- | --- | --- | --- | --- | --- | --- | --- | --- | --- | --- | --- | --- | --- |
| C=CCN1CC(=O)N2[C@@H](Cc3ccc(O)cc3F)C(=O)N(Cc3cccc(N4CC(N5CCN(CC)CC5)C4)n3)C[C@@H]2N1C(=O)NCc1ccccc1 [E7386, (6S,9aS)-N-benzyl-8-((6-(3-(4-ethylpiperazin-1-yl)azetidin-1-yl)pyridin-2-yl)methyl)-6-((2-fluoro-4-hydroxyphenyl)methyl)-4,7-dioxo-2-(prop-2-en-1-yl)-octahydro-1H-pyrazino[2,1-c][1,2,4]triazine-1-carboxamide] | 251.2 ± 8.1 | 327.4 ± 24.9 | 445.0 ± 26.3 | 579.1 ± 45.1 | 729.2 ± 56.7 | 519.9 ± 34.1 | 714.4 ± 55.5 | 221.5 ± 9.5 | 340.9 ± 17.5 | 337.4 ± 20.9 | 1487.0 ± 59.7 | 2526.8 ± 123.1 |  |  |
| C#Cc1c(F)ccc2cc(O)cc(-c3ncc4c(N5CC6CCC(C5)N6)nc(OC[C@@]56CCCN5C[C@@H](F)C6)nc4c3F)c12 [MRTX1133, 4-(4-((1R,5S)-3,8-diazabicyclo[3.2.1]octan-3-yl)-8-fluoro-2-(((2R,7aS)-2-fluorohexahydro-1H-pyrrolidin-7a-yl)methoxy)pyrodo[4,3-d]pyrimidin-7-yl)-5-et hynyl-6-fluoronaphthalen-2-ol] |  |  |  |  |  |  |  |  |  |  |  |  | 1.79 | 5.37 |
